# Where two headings read alike, the source gives them in different places.
# Tests used:
# [1] = test system: LAPC4 prostate cancer cell line; assay: Cell survival of LAPC4 cells grown with MDV3100, R1881, Dex, Mif, GSK650394; type: cell-based, human
# Excerpt: (§1) GR Antagonist Studies. […]. SGK1-FLAG or vector was stably expressed and cellular viability, secreted PSA, and protein lysates were collected.
# [2] = test system: CWR-22RV1 (22RV1) prostate cancer cell line; assay: Cell survival of CWR-22RV1 cells grown with MDV3100, R1881, Dex, GSK650394; type: cell-based, human
# Excerpt: as §1
# [3] = test system: castration-resistant prostate cancer patients who have received prior docetaxel; conditions: cited from earlier work
# [4] = test system: prostate specific antigen serum levels; conditions: after a month of taking the medicine; cited from earlier work
# breast cancer cell = conditions: cited from earlier work
# [5] = test system: LNCaP cells engineered to express elevated levels of AR; conditions: cited from earlier work
# [6] = test system: metastatic castration-resistant prostate cancer patients; conditions: cited from earlier work
# LAPC4 cell line = assay: GR expression following MDV3100 treatment, LAPC4; type: cell-based, human
# SGK1 = assay: Expression of SGK1 in prostate cancer cell lines; type: cell-based, human; conditions: MDV3100, and addition of Dex
# Excerpt: as §1
# CWR-22RV1 cell line = assay: GR expression following MDV3100 treatment, CWR-22RV1; type: cell-based, human
# CRPC cell lines [7] = assay: GR expression level in CRPC cell lines; type: cell-based, human; conditions: addition of MDV3100, within 3-7 days
# CRPC cell lines [8] = assay: Proliferation / growth of castrate-resistant prostate cancer cell lines; type: cell-based, human
# Excerpt: as §1
# [9] = cited from earlier work
# advanced prostate cancer = conditions: cited from earlier work
# [10] = at 9 months; cited from earlier work
smiles,measurement,setting,value
O=C(O)c1ccc(-c2c[nH]c3ncc(-c4ccccc4)cc23)cc1C1CCCC1 [GSK650394],% survival relative to R1881+Dex control,"[1]; LAPC4, GSK650394 added to MDV3100+Dex",19%
same,cell survival following treatment with the SGK1 inhibitor,[2]; results similar to LAPC4,impaired
CNC(=O)c1ccc(N2C(=S)N(c3ccc(C#N)c(C(F)(F)F)c3)C(=O)C2(C)C)cc1F [MDV3100],lived longer than those taking placebo,[3]; AFFIRM interim analysis,approximately 5 months
same,median survival after progression on MDV3100,[3]; in vivo,under 1 year
same,survival advantage,"[3]; phase III, reported in 2012",4-5 month
same,decrease in prostate specific antigen serum levels,[4],≤ 89%
same,breast cancer cell growth,breast cancer cell,inhibits breast cancer cell growth
same,expression of androgen dependent genes PSA and TMPRSS2,[5],down regulated
same,Median time to radiographic progression,[6]; chemo-naive patients,56 weeks
same,patients with PSA level decreased more than 50 percent,[6]; chemo-naive patients,40/65
same,patients with PSA level decreased more than 50 percent,[6]; chemotherapy-treated patients,38/75
same,Median time to radiographic progression,[6]; post-chemotherapy population,25 weeks
same,reduction in cell death compared to R1881+Dex control,[1]; LAPC4,26%
same,cell survival compared to R1881 control,"[1]; LAPC4, MDV3100 with vs without Dex",47%
same,survival under MDV3100 treatment,[1]; SGK1-Flag over-expressing LAPC4 cells,61%
same,survival under MDV3100 treatment,[1]; vector control LAPC4 cells,24%
same,GR expression,LAPC4 cell line,increased
same,Expression of SGK1,SGK1,reduced
same,cell survival,[2]; MDV3100 with vs without Dex,51%
same,GR expression,CWR-22RV1 cell line,increased
same,GR expression level,CRPC cell lines [7],significantly increases
"CC#C[C@]1(O)CC[C@H]2[C@@H]3CCC4=CC(=O)CCC4=C3[C@@H](c3ccc(N(C)C)cc3)C[C@@]21C [Mif, mifepristone]",proliferation with addition of a GR inhibitor to MDV3100 under GR activation,CRPC cell lines [8],restoring the decrease in proliferation
same,change in survival compared to R1881+Dex control,"[1]; LAPC4, addition of Mif alone",no change in survival
CC(C)C(=O)Nc1ccc([N+](=O)[O-])c(C(F)(F)F)c1 [flutamide],hepatic impairment,[9]; doses of 125 mg/day or less,No cases of hepatic impairment
same,hepatotoxicity,[9]; warnings from patients using 750 mg daily,fatal hepatotoxicity has been reported
CCNC(=O)[C@@H]1CCCN1C(=O)[C@H](CCCNC(=N)N)NC(=O)[C@H](CC(C)C)NC(=O)[C@@H](CC(C)C)NC(=O)[C@H](Cc1ccc(O)cc1)NC(=O)[C@H](CO)NC(=O)[C@H](Cc1c[nH]c2ccccc12)NC(=O)[C@H](Cc1c[nH]cn1)NC(=O)[C@@H]1CCC(=O)N1 [leuprolide],cardiovascular toxicity,"advanced prostate cancer; human, in vivo",lower incidence of cardiovascular toxicity
same,reducing serum testosterone to castrate levels,advanced prostate cancer; monthly depot,equivalent to 3 mg of DES
same,Overall survival,[10],90.5%
CC(C)C[C@H](NC(=O)[C@@H](Cc1c[nH]c2ccccc12)NC(=O)[C@H](Cc1ccc(O)cc1)NC(=O)[C@H](CO)NC(=O)[C@H](Cc1c[nH]c2ccccc12)NC(=O)[C@H](Cc1c[nH]cn1)NC(=O)[C@@H]1CCC(=O)N1)C(=O)N[C@@H](CCCNC(=N)N)C(=O)N1CCC[C@H]1C(=O)NCC(N)=O [triptorelin],Overall survival,[10],97%
